Laboratory results taken from patent publication US20080045514A1 (Cytovia, Inc., priority 2006, published 2008).
pEC50: −log10 of the molar value. Read-outs that look alike come from different tables or passages of the source.

Assays:
Type in all cases: cell-based
[1] = system: human Burkitt's lymphoma cell line Namalwa; test: Caspase cascade activation (EC50), Namalwa; settings: Homo sapiens, Burkitts lymphoma cell; Namalwa cells; caspase cascade activation; read-out: caspase potency (EC50) Namalwa
In short: (§1)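 Fluorogenic DEVD-R110 cleavage at 485/530 nm gives the read-out, taken 3 h after substrate addition and corrected by the control's T=0 background. Compound-treated over control net RFU ratio was fitted sigmoidally for EC50. Cells had been treated 48 h at 0.016 to 10 μM final.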

[2] = system: human Burkitt's lymphoma cell line Namalwa; test: Inhibition of cell proliferation (GI50), Namalwa; settings: Homo sapiens, Burkitts lymphoma cell; Namalwa cells, 48 h, CellTiter-Glo
Description: (§2) Human breast cancer cell lines T-47D, human hepatocellular carcinoma cell line SNU398, human colon carcinoma cell line HCT116, human lung cancer cell line H1299, human leukemia cell line K562, human lymphoma cell line Raji, human B cell lymphoblastoid cell line Ramos, and human Burkitt's lymphoma cell line Namalwa were grown and harvested as in Example 100. An aliquot of […] of cells (4.4×10^4 cells/mL) was added to a well of a 96-well microtiter plate containing 5 μL of a 10% DMSO in RPMI-1640 media solution containing 10 nM to 100 μM of 3-(2-chlorophenyl)-6-(3,4-methylenedioxyphenyl)-7H-[1,2,4]triazolo[3,4-b][1,3,4]thiadiazine (1 nM to 10 μM final). An aliquot of 45 μL of cells was added to a well of a 96-well microtiter plate containing 5 μL of a 10% DMSO in RPMI-1640 media solution without compound as the control sample for maximal cell proliferation (LMax). The samples were mixed by agitation and then incubated at 37° C. for 48 h in a 5% CO2-95% humidity incubator. After incubation, the samples were removed from the incubator and 25 μL of CellTiter-Glo™ reagent (Promega) was added. The samples were mixed by agitation and incubated at room temperature for 10-15 min. Plates were then read using a luminescent plate reader (Model SPECTRAfluor Plus, Tecan) to give Ltest values.
(§3) The samples were mixed by agitation and then incubated at 37° C. for 0.5 h in a 5% CO2-95% humidity incubator. After incubation, the samples were removed from the incubator and 25 μL of CellTiter-Glo™ reagent (Promega) was added. The samples were mixed by agitation and incubated at […] 10-15 min at room temperature in a 5% CO2-95% humidity incubator. Fluorescence was read as above, (LStart) defining luminescence for initial cell number used as baseline in GI50 determinations.
(§4) Calculation: GI50 (dose for 50% inhibition of cell proliferation) is the concentration where [(Ltest−LStart)/(LMax−LStart)]=0.5.

[3] = system: human colon carcinoma cell line HCT116; test: Caspase cascade activation (EC50), HCT116; settings: Homo sapiens, HCT-116; HCT116 cells; caspase cascade activation; read-out: caspase potency (EC50) HCT116
In short: as §1

[4] = system: human hepatocellular carcinoma cell line SNU398; test: Inhibition of cell proliferation (GI50), SNU398; settings: SNU 398 cells, 48 h, CellTiter-Glo
Description: as §2, §3, §4

[5] = system: human colon carcinoma cell line HCT116; test: Inhibition of cell proliferation (GI50), HCT116; settings: HCT 116 cells, 48 h, CellTiter-Glo
Description: as §2, §3, §4

[6] = system: human breast cancer cell line T-47D; test: Inhibition of cell proliferation (GI50), T47D; settings: T47D cells, 48 h, CellTiter-Glo
Description: as §2, §3, §4

[7] = system: human breast cancer cell line T-47D; test: Caspase cascade activation (EC50), T-47D; settings: T47D cells, caspase cascade activation, read-out: caspase potency (EC50) T47D
In short: as §1

[8] = system: human hepatocellular carcinoma cell line SNU398; test: Caspase cascade activation (EC50), SNU398; settings: Homo sapiens, SNU-398; SNU398 cells; caspase cascade activation; read-out: caspase potency (EC50) SNU398
In short: as §1

[9] = system: human lymphoma cell line Raji; test: Caspase cascade activation (EC50), Raji; settings: Homo sapiens, RAJI cells, read-out: caspase potency (EC50) RAJI
In short: as §1

[10] = system: human leukemia cell line K562; test: Inhibition of cell proliferation (GI50), K562; settings: Homo sapiens; K562 cells, 48 h, CellTiter-Glo
Description: as §2, §3, §4

[11] = system: human cancer cell line H1299; test: Caspase cascade activation (EC50), H1299; settings: NCI-H1299, H1299 cells, read-out: caspase potency (EC50) H1299
Description: Human breast cancer cell lines T-47D, human hepatocellular carcinoma cell line SNU398, human colon carcinoma cell line HCT116, human cancer cell line H1299, human Burkitt's lymphoma cell line Namalwa, human lymphoma cell line Raji, and human B cell lymphoblastoid cell line Ramos were grown according to media component mixtures designated by American Type Culture Collection+10% FCS (Invitrogen Corporation), in a 5% CO2-95% humidity incubator at 37° C. T-47D and H1299 cells were maintained at a cell density between 50 and 80% confluency at a cell density of 0.1 to 0.6×10^6 cells/mL. Cells were harvested at 600×g and resuspended at 0.65×10^6 cells/mL into appropriate media+10% FCS. An aliquot of 22.5 μL of cells was added to a well of a 384-well microtiter plate containing 2.5 μL of a 10% DMSO in RPMI-1640 media solution containing 0.16 to 100 μM of 3-(2-chlorophenyl)-6-(3,4-methylenedioxyphenyl)-7H-[1,2,4]triazolo[3,4-b][1,3,4]thiadiazine or other test compound (0.016 to 10 μM final). An aliquot of 22.5 μL of cells was added to a well of a 384-well microtiter plate containing 2.5 μL of a 10% DMSO in RPMI-1640 media solution without test compound as the control sample. The samples were mixed by agitation and then incubated at 37° C. for 48 h in a 5% CO2-95% humidity incubator. After incubation, the samples were removed from the incubator and 25 μL of a solution containing 14 μM of N—(Ac-DEVD)-N′-ethoxycarbonyl-R110 (SEQ ID No.:1) fluorogenic substrate (Cytovia, Inc.; WO99/18856), 20% sucrose (Sigma), 20 mM DTT (Sigma), 200 mM NaCl (Sigma), 40 mM Na PIPES buffer pH 7.2 (Sigma), and 500 μg/mL lysolecithin (Calbiochem) was added. The samples were mixed by agitation and incubated at room temperature. Using a fluorescent plate reader (Model SPECTRAfluor Plus, Tecan), an initial reading (T=0) was made approximately 1-2 min after addition of the substrate solution, employing excitation at 485 nm and emission at 530 nm, to determine the background fluorescence of the control sample. After the 3 h incubation, the samples were read for fluorescence as above (T=3 h). Calculation: The Relative Fluorescence Unit values (RFU) were used to calculate the sample readings as follows: RFU(T=3H)−Control RFU(T=0)=Net RFU(T=3h) The activity of caspase cascade activation was determined by the ratio of the net RFU value for 3-(2-chlorophenyl)-6-(3,4-methylenedioxyphenyl)-7H-[1,2,4]triazolo[3,4-b][1,3,4]thiadiazine (Example P) or other test compound to that of control samples. The EC50 (nM) was determined by a sigmoidal dose-response calculation (Prism 3.0, GraphPad Software Inc.).

[12] = system: human lymphoma cell line Raji; test: Inhibition of cell proliferation (GI50), Raji; settings: Homo sapiens; Raji cells, 48 h, CellTiter-Glo
Description: as §2, §3, §4

[13] = system: human B cell lymphoblastoid cell line Ramos; test: Inhibition of cell proliferation (GI50), Ramos; settings: Homo sapiens; Ramos cells, 48 h, CellTiter-Glo
Description: as §2, §3, §4

[14] = system: human B cell lymphoblastoid cell line Ramos; test: Caspase cascade activation (EC50), Ramos; settings: Homo sapiens, RAMOS cells, read-out: caspase potency (EC50) RAMOS
In short: as §1

Row | pEC50 [1] | GI50 [2] | pEC50 [3] | GI50 ([4]; Homo sapiens) | GI50 ([5]; Homo sapiens) | GI50 ([6]; Homo sapiens) | pEC50 ([7]; Homo sapiens) | pEC50 [8] | pEC50 [9] | GI50 [10] | pEC50 [11] | GI50 [12] | GI50 [13] | pEC50 [14] | GI50 [4] | GI50 [5] | GI50 [6] | pEC50 [7] | Compound
1 | 7.74 | 15 nM | 7.51 | 10 nM | 50 nM | 33 nM | 7.00 | 7.62 | – | – | – | – | – | – | – | – | – | – | COc1ccc(Cl)cc1-c1nnc2n1N=C(c1ccc(C)cc1)CS2 [Example 62, 3-(5-Chloro-2-methoxyphenyl)-6-(4-methylphenyl)-7H-[1,2,4]triazolo[3,4-b][1,3,4]thiadiazine]
2 | 6.91 | 117 nM | 6.62 | – | 121 nM | – | 6.25 | 6.94 | 6.96 | 42 nM | 6.26 | 89 nM | 17 nM | 7.11 | – | – | – | – | COc1ccc(C2=Nn3c(nnc3-c3cccc(Cl)c3)SC2)cc1 [R, 3-(3-Chlorophenyl)-6-(4-methoxyphenyl)-7H-[1,2,4]triazolo[3,4-b][1,3,4]thiadiazine]
3 | 7.49 | 64 nM | 7.26 | 13 nM | 40 nM | 34 nM | 6.55 | 7.28 | – | – | – | – | – | – | – | – | – | – | COc1ccc(C2=Nn3c(nnc3-c3ccc(Cl)cc3Cl)SC2)cc1 [Example N3]
4 | 6.57 | 254 nM | 6.37 | – | 396 nM | – | 5.57 | 6.58 | 6.34 | 267 nM | 5.90 | 133 nM | 108 nM | 6.48 | – | – | – | – | CCOc1ccc(C2=Nn3c(nnc3-c3ccc(C)cc3)SC2)cc1 [B, 3-(4-Methylphenyl)-6-(4-ethoxyphenyl)-7H-[1,2,4]triazolo[3,4-b][1,3,4]thiadiazine]
5 | 7.54 | – | 7.34 | 25 nM | 21 nM | 15 nM | 6.93 | 7.62 | 7.30 | – | – | – | – | 7.51 | – | – | – | – | COc1cc(-c2nnc3n2N=C(c2ccc(C)cc2)CS3)cc(OC)c1OC [Example 17, 3-(3,4,5-Trimethoxyphenyl)-6-(4-methylphenyl)-7H-[1,2,4]triazolo[3,4-b][1,3,4]thiadiazine]
6 | 7.21 | 24 nM | 6.90 | – | 141 nM | – | 5.87 | 7.04 | 6.85 | 27 nM | 6.47 | 62 nM | 17 nM | 7.03 | – | – | – | – | CCOc1ccc(C2=Nn3c(nnc3-c3ccccc3C)SC2)cc1 [L, 3-(2-Methylphenyl)-6-(4-ethoxyphenyl)-7H-[1,2,4]triazolo[3,4-b][1,3,4]thiadiazine]
7 | – | – | – | – | – | – | – | – | – | – | – | – | – | – | 2000 nM | 1150 nM | 936 nM | 6.22 | 3-(3,5-Dimethoxyphenyl-4-(2-dimethylaminoethoxy)phenyl)-6-(4-methylphenyl)-7H-[1,2,4]triazolo[3,4-b][1,3,4]thiadiazine [Example 16]
8 | < 5.00 | – | < 5.00 | 4600 nM | 5000 nM | 5000 nM | 5.67 | < 5.00 | 5.27 | – | – | – | – | 5.59 | – | – | – | – | CCOc1cccc(-c2nnc3n2N=C(c2ccc4c(c2)OCO4)CS3)c1 [Example E1, 3-(3-Ethoxyphenyl)-6-(3,4-methylenedioxyphenyl)-7H-[1,2,4]triazolo[3,4-b][1,3,4]thiadiazine]
9 | 7.46 | 64 nM | 7.21 | – | 41 nM | – | 7.04 | 7.39 | 6.97 | 17 nM | – | 15 nM | 16 nM | 7.21 | – | – | – | – | COc1ccccc1-c1nnc2n1N=C(c1ccc(N3CCCC3)cc1)CS2 [Example 24, 3-(2-Methoxyphenyl)-6-(4-(pyrrolidin-1-yl)phenyl)-7H-[1,2,4]triazolo[3,4-b][1,3,4]thiadiazine]
10 | 7.12 | 68 nM | 6.91 | – | 142 nM | – | 6.26 | 7.26 | 7.07 | 34 nM | – | 247 nM | 20 nM | 7.22 | – | – | – | – | COc1ccc(C2=Nn3c(nnc3-c3ccccc3F)SC2)cc1 [Example L2, 3-(2-Fluorophenyl)-6-(4-methoxyphenyl)-7H-[1,2,4]triazolo[3,4-b][1,3,4]thiadiazine]
11 | 6.60 | 975 nM | 6.57 | – | 1130 nM | – | 6.51 | 6.71 | 6.35 | 400 nM | – | 1260 nM | 346 nM | 6.59 | – | – | – | – | COc1ccc(C2=Nn3c(nnc3-c3n[nH]c4c3CCC4)SC2)cc1 [Example V2]
